The assay has as its target Factor D (Homo sapiens (Human), UniProt P00746). Nature of the assay: biochemical. The format is biochemical. The conditions noted are these: read-out: IC50.

From US9085555B2, “Complement pathway modulators and uses thereof” (priority 2011, dated 2015) come the findings set out here.

A word on the IC50: it is the concentration that gives 50% inhibition.

Chain of Factor D (P00746 26-253): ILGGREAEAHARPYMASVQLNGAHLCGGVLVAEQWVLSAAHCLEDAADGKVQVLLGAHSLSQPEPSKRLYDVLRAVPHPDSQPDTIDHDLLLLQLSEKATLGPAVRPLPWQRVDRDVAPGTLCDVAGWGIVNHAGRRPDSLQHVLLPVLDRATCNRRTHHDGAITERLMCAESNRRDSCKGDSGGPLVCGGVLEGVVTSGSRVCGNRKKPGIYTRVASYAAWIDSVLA

Turning to `NC(=O)n1cc(NC(=O)N2C[C@@H](C(F)(F)F)C[C@H]2C(=O)NCc2cccc(Cl)c2F)c2ccccc21` [Example 147, (2S,4S)-4-Trifluoromethyl-pyrrolidine-1,2-dicarboxylic acid 1-[(1-carbamoyl-1H-indol-3-yl)-amide] 2-(3-chloro-2-fluoro-benzylamide)], the IC50 was 120 nM.
In the case of `NC(=O)n1cc(NC(=O)N2CC[C@@H]3C[C@@]32C(=O)NCc2cccc(Cl)c2F)c2ccccc21` [Example 149, (1S,5R)-2-Aza-bicyclo[3.1.0]hexane-1,2-dicarboxylic acid 2-[(1-carbamoyl-1H-indol-3-yl)-amide] 1-(3-chloro-2-fluoro-benzylamide)] it was 10800 nM.
In the case of `CC1(C)SC[C@@H](C(=O)Nc2cccc(OC(F)(F)F)c2)N1C(=O)Nc1cn(C(N)=O)c2ccccc12` [Example 151, (R)-2,2-Dimethyl-thiazolidine-3,4-dicarboxylic acid 3-[(1-carbamoyl-1H-indol-3-yl)-amide] 4-[(3-trifluoromethoxy-phenyl)-amide]] it was 9320 nM; in that of `N#Cc1ccc(-c2cccc(NC(=O)[C@@H]3CCCN3C(=O)Nc3cn(C(N)=O)c4ccccc34)c2)cc1` [Example 152, (S)-pyrrolidine-1,2-dicarboxylic acid 1-[(1-carbamoyl-1H-indol-3-yl)amide]2-[(4′-cyano-biphenyl-3-yl)-amide]], 4400 nM; in that of `COC(=O)c1cc(Br)cc(NC(=O)[C@@H]2C[C@@H](F)CN2C(=O)Nc2cn(C(N)=O)c3ccccc23)c1` [Example 153, 3-Bromo-5-{[(2S,4R)-1-(1-carbamoyl-1H-indol-3-ylcarbamoyl)-4-fluoro-pyrrolidine-2-carbamoyl]-amino}-benzoic acid methyl ester], 55 nM.
Regarding `CN(C)CCNC(=O)c1cc(Cl)c(F)c(CNC(=O)[C@@H]2C[C@@H](F)CN2C(=O)Nc2cn(C(N)=O)c3ccccc23)c1` [Example 154, (2S,4R)-4-Fluoro-pyrrolidine-1,2-dicarboxylic acid 1-[(1-carbamoyl-1H-indol-3-yl)-amide] 2-[3-chloro-5-(2-dimethylamino-ethyl-carbamoyl)-2-fluoro-benzylamide]], the IC50 amounted to 1370 nM.
The value for `NC(=O)n1cc(NC(=O)N2C3CC3C[C@H]2C(=O)NCc2ccc(Cl)s2)c2ccccc21` (stereo partly drawn) [Example 155, (1R,3S,5R)-2-Aza-bicyclo[3.1.0]hexane-2,3-dicarboxylic acid 2-[(1-carbamoyl-1H-indol-3-yl)-amide] 3-[(5-chloro-thiophen-2-ylmethyl)-amide]] was 20 nM.
In the case of `COC(=O)c1ccc(NC(=O)[C@@H]2C[C@@H](F)CN2C(=O)Nc2cn(C(N)=O)c3ccccc23)cc1Br` [Example 156, 2-Bromo-4-{[(2S,4R)-1-(1-carbamoyl-1H-indol-3-ylcarbamoyl)-4-fluoro-pyrrolidine-2-carbonyl]-amino}-benzoic acid methyl ester] it was 150 nM.
In the case of `CCc1cccc(NC(=O)[C@@H]2CC3CC3N2C(=O)Nc2cn(C(N)=O)c3ccccc23)n1` (stereo partly drawn) [Example 158, (1R,3S,5R)-2-Aza-bicyclo[3.1.0]hexane-2,3-dicarboxylic acid 2-[(1-carbamoyl-1H-indol-3-yl)-amide] 3-[(6-ethyl-pyridin-2-yl)-amide]], the IC50 turned out to be 80 nM.
In the case of `NC(=O)n1cc(NC(=O)N2C[C@H](F)C[C@H]2C(=O)Nc2cc(Br)cc(C(=O)O)c2)c2ccccc21` [Example 159, 3-bromo-5-{[(2S,4R)-1-(1-carbamoyl-1H-indol-3-ylcarbamoyl)-4-fluoro-pyrrolidine-2-carbonyl]-amino}-benzoic acid] it was 55 nM; in that of `CC(C)(C)c1csc(NC(=O)[C@@H]2CCCN2C(=O)Nc2cn(C(N)=O)c3ccccc23)n1` [Example 160, (S)-Pyrrolidine-1,2-dicarboxylic acid 2-[(4-tert-butyl-thiazol-2-yl)-amide] 1-[(1-carbamoyl-1H-indol-3-yl)-amide]], 1400 nM; in that of `NC(=O)n1cc(NC(=O)N2CSC[C@H]2C(=O)Nc2cccc(OC(F)(F)F)c2)c2ccccc21` [Example 161, (R)-Thiazolidine-3,4-dicarboxylic acid 3-[(1-carbamoyl-1H-indol-3-yl)-amide] 4-[(3-trifluoromethoxy-phenyl)-amide]], 987 nM.
As to `COCCOc1ccc2c(c1)c(NC(=O)N1C3CC3C[C@H]1C(=O)NCc1cccc(Cl)c1F)cn2C(N)=O` (stereo partly drawn) [Example 162, (1R,3S,5R)-2-Aza-bicyclo[3.1.0]hexane-2,3-dicarboxylic acid 2-{[1-carbamoyl-5-(2-methoxy-ethoxy)-1H-indol-3-yl]-amide} 3-(3-chloro-2-fluoro-benzylamide)], the IC50 came to 5 nM.
The value for `CCc1cccc(NC(=O)[C@@H]2C[C@@H](F)CN2C(=O)Nc2cn(C(N)=O)c3ccccc23)n1` [Example 163, (2S,4R)-4-Fluoro-pyrrolidine-1,2-dicarboxylic acid 1-[(1-carbamoyl-1H-indol-3-yl)-amide] 2-[(6-ethyl-pyridin-2-yl)-amide]] was 100 nM; that for `C[C@]1(O)C[C@@H](C(=O)NCc2cccc(Cl)c2F)N(C(=O)Nc2cn(C(N)=O)c3ccccc23)C1` [Example 164, (2S,4S)-4-Hydroxy-4-methyl-pyrrolidine-1,2-dicarboxylic acid 1-[(1-carbamoyl-1H-indol-3-yl)-amide] 2-(3-chloro-2-fluoro-benzylamide)] was 400 nM.
In the case of `Cc1ncc(NC(=O)[C@@H]2C[C@@H](F)CN2C(=O)Nc2cn(C(N)=O)c3ccccc23)cc1Br` [Example 165, (2S,4R)-4-Fluoro-pyrrolidine-1,2-dicarboxylic acid 1-[(1-carbamoyl-1H-indol-3-yl)-amide] 2-[(5-bromo-4-methyl-pyridin-3-yl)-amide]] it was 140 nM.
The value for `NC(=O)n1cc(NC(=O)N2C3CC3C[C@H]2C(=O)NCc2cccc(Cl)c2F)c2ccccc21` (stereo partly drawn) [Example 166, (1R,3S,5R)-2-Aza-bicyclo[3.1.0]hexane-2,3-dicarboxylic acid 2-[(1-carbamoyl-1H-indol-3-yl)-amide] 3-(3-chloro-2-fluoro-benzylamide)] was 3 nM; that for `Cc1ncc(Br)cc1NC(=O)[C@@H]1C[C@@H](F)CN1C(=O)Nc1cn(C(N)=O)c2ccccc12` [Example 168, (2S,4R)-4-Fluoro-pyrrolidine-1,2-dicarboxylic acid 2-[(5-bromo-2-methyl-pyridin-3-yl)-amide] 1-[(1-carbamoyl-1H-indol-3-yl)-amide]] was 250 nM.
With `NC(=O)n1cc(NC(=O)N2CCS[C@H]2C(=O)NCc2cccc(F)c2F)c2ccccc21` [Example 169, (S)-Thiazolidine-2,3-dicarboxylic acid 3-[(1-carbamoyl-1H-indol-3-yl)-amide] 2-(2,3-difluoro-benzylamide)], the IC50 stood at 268 nM.
The value for `NC(=O)n1cc(NC(=O)N2CCC[C@H]2C(=O)NCc2cccc(Cl)c2F)c2ccccc21` [Example 170, (S)-Pyrrolidine-1,2-dicarboxylic acid 1-[(1-carbamoyl-1H-indol-3-yl)-amide] 2-(3-chloro-2-fluoro-benzylamide)] was 30 nM; that for `NC(=O)n1cc(NC(=O)N2[C@@H]3C[C@@H]3C[C@H]2C(=O)Nc2cncc(Br)c2)c2ccccc21` [Example 171, (1R,3S,5R)-2-Aza-bicyclo[3.1.0]hexane-2,3-dicarboxylic acid 2-[(1-carbamoyl-1H-indol-3-yl)-amide] 3-[(5-bromo-pyridin-3-yl)-amide]] was 200 nM; that for `NC(=O)n1cc(NC(=O)N2[C@@H]3C[C@@H]3C[C@H]2C(=O)Nc2ncccc2F)c2ccccc21` [Example 172, (1R,3S,5R)-2-Aza-bicyclo[3.1.0]hexane-2,3-dicarboxylic acid 2-[(1-carbamoyl-1H-indol-3-yl)-amide] 3-[(3-fluoro-pyridin-2-yl)-amide]] was 1050 nM.
In the case of `NC(=O)n1cc(NC(=O)N2CCS[C@H]2C(=O)NCc2cccc(Cl)c2)c2ccccc21` [Example 174, (S)-Thiazolidine-2,3-dicarboxylic acid 3-[(1-carbamoyl-1H-indol-3-yl)-amide] 2-(3-chloro-benzylamide)] it was 35 nM; in that of `NC(=O)n1cc(NC(=O)N2C3CC3C[C@H]2C(=O)Nc2cccc(Cl)c2F)c2ccccc21` (stereo partly drawn) [Example 176, (1R,3S,5R)-2-Aza-bicyclo[3.1.0]hexane-2,3-dicarboxylic acid 2-[(1-carbamoyl-1H-indol-3-yl)-amide] 3-[(3-chloro-2-fluoro-phenyl)-amide]], 30 nM; in that of `NC(=O)n1cc(NC(=O)N2CC[C@@H](O)[C@H]2C(=O)NCc2cccc(Cl)c2)c2ccccc21` [Example 177, (2S,3R)-3-Hydroxy-pyrrolidine-1,2-dicarboxylic acid 1-[(1-carbamoyl-1H-indol-3-yl)-amide] 2-(3-chloro-benzylamide)], 85 nM.
In the case of `NC(=O)n1cc(NC(=O)N2CCS[C@H]2C(=O)NCc2cccc(Cl)c2F)c2ccccc21` [Example 178, (S)-Thiazolidine-2,3-dicarboxylic acid 3-[(1-carbamoyl-1H-indol-3-yl)-amide] 2-(3-chloro-2-fluoro-benzylamide)] it was 6 nM; in that of `[N-]=[N+]=NC[C@H]1CC[C@@H](C(=O)Nc2cccc(OC(F)(F)F)c2)N1C(=O)Nc1cn(C(N)=O)c2ccccc12` [Example 179, (2S,5R)-5-azidomethyl-pyrrolidine-1,2-dicarboxylic acid 1-[(1-carbamoyl-1H-indol-3-yl)-amide]2-[(3-trifluoromethoxy-phenyl)-amide]], 400 nM.
For `NC(=O)n1cc(NC(=O)N2CC3(CC3)C[C@H]2C(=O)NCc2cccc(Cl)c2)c2ccccc21` [Example 180, (S)-5-Aza-spiro[2.4]heptane-5,6-dicarboxylic acid 5-[(1-carbamoyl-1H-indol-3-yl)-amide] 6-(3-chloro-benzylamide)], the IC50 amounted to 650 nM.
Consider `NC(=O)n1cc(NC(=O)N2C[C@@](F)(CO)C[C@H]2C(=O)NCc2cccc(Cl)c2F)c2ccccc21` [Example 181, (2S,4R)-4-Fluoro-4-hydroxymethyl-pyrrolidine-1,2-dicarboxylic acid 1-[(1-carbamoyl-1H-indol-3-yl)-amide] 2-(3-chloro-2-fluoro-benzylamide)], for which the IC50 came out at 20 nM.
